Test results: patent US12174172B2, “Method for evaluating the efficacy of a composition in reducing the effects of cancer therapeutics on skin” (Johnson & Johnson Consumer Inc., priority 2019, dated 2024)
Where “and” joins values, the source holds several entries; their conditions need not be identical. Equal values may be shown once. Entries after “also recorded” stand apart in the source; their conditions may differ. Read-outs that look alike come from different tables or passages of the source. Marks after values point to notes of the source that are not given here.

How the values were obtained:
involucrin (IVL) = experiment: 3D micro-epidermis model (EpiScreen): involucrin immunostaining; type: cell-based, human; settings: for activation at 0.1 µM / activation at 1 µM: Homo sapiens, 72 h; for activation at 0.1 µM: 100 nM; for IVL expression: Table 1 summary
Protocol: (§1) To assess the effects of such therapy molecules on the epidermis, keratinocytes were grown in the presence of kinase inhibitors during 3 days with high calcium concentration to induce keratinocyte differentiation and generate a 3D-stratified differentiated epidermis. Drug impact on the epidermis development was assessed via different keratinocyte markers including: • Ki-67, an universally expressed protein among proliferating cells and absent in the quiescent cells; • Filaggrin, a filament-associated protein that binds to keratin fibers and is a marker of terminal differentiation; • Desmoglein-1, a component of desmosomes and differentiation marker expressed in all epidermal layer above the basal layer; and • Involucrin, an early differentiation marker expressed in the spinous and granular layers and a protein precursor of the epidermal cornified envelope.
(§2) Human epidermal keratinocytes cells (HPEKs) from a juvenile donor (CellnTec, Switzerland) are cultured in flasks in proliferation medium. Keratinocytes are seeded at passage 6 into EpiScreen™ (Abzena, Cambridge, UK) plates containing collagen 1 coated disc micropatterns (CYTOO, Grenoble, France). Four hours later, unattached cells are washed off and a high calcium medium is added to induce keratinocytes differentiation. The day after, keratinocytes are treated with screening compounds, and Trichostatin A is added at 0.3 μM as an internal positive control. After three days of treatment, micro-epidermises are fixed with a formalin solution 10% for 30 minutes, then permeabilized with 0.1% Triton. Several immunostainings are performed: actin (Acti-Stain 555, PHDH1, Cytoskeleton), nuclei (Hoechst, H3570, Invitrogen), and one biomarker of interest per well either anti-involucrin (HPA055211, Sigma), anti-filaggrin (HPA030189, Sigma) or anti-desmoglein-1 (HPA022128, Sigma). Antibodies are added overnight at 4° C. before staining with secondary antibody, anti-rabbit 488 (711-545-152, Jackson) for 2 hours at room temperature.
(§3) Images of each well are acquired with the Operetta HCS platform (Perkin Elmer, Waltham, MA, USA) using a ×10 objective in confocal mode in eight z-planes from 2 μm to 44 μm in steps of 6 μm in each of the 3 channels: actin, nuclei, and one biomarker of interest. The first step of the image analysis consists in detecting micro-epidermis structures on the first z-plane by segmenting the actin staining. Micro-epidermis structures are validated based on several area and roundness min and max criteria. Then, the area of each biomarker staining is measured inside the valid micro-epidermis masks through each z-plane. For all homogeneous biomarker staining, their intensity through the different planes is measured.
(§4) The actin network of each micro-epidermis is analyzed in each z-plane in order to determine the average 3D structure edges. The biomarker intensity is measured in each z-plane for each structure, and then averaged with the other results generated in the same well. Based on the data generated in the two previous steps, an average 3D reconstruction image is generated. It consists of a meshwork that delimits the structure edges, and a color scaled volume that corresponds to the biomarkers distribution and expression.
The effect of 8 oncology molecules, selected from first generation EGFRi and pan-kinase inhibitors which mostly target VEGFR and second and third generation therapies targeting main mutations relating to first generation treatment resistance, were assessed in vitro using a 3D micro-epidermis model. […] The drug impact was assessed by analysis of tissue size and keratinocyte proliferation using Ki-67 staining and keratinocyte differentiation using filaggrin, desmoglein-1 and involucrin staining.
Size of the epidermis and the expression of the protein junction desmoglein-1 (DSG1), involucrin (IVL) and filaggrin (FLG) was assessed by immunostaining and compared to untreated control. […]

[1] = most frequent cutaneous adverse reaction reported by the FDA Adverse Event Reporting System; cited from earlier work
desmoglein-1 (DSG1) [2] = experiment: 3D micro-epidermis model (EpiScreen): desmoglein-1 immunostaining; type: cell-based, human; settings: for DSG 3 nM / DSG 30 nM / activation at 0.01 µM / activation at 0.1 µM: supplementary data; for activation at 0.01 µM / activation at 0.1 µM: Homo sapiens, 72 h; for activation at 0.01 µM: 10 nM, read-out: DSG 10 nM; for activation at 0.1 µM: 100 nM, Tox = toxic, read-out: DSG 100 nM; for DSG-1 expression: Table 1 summary
Protocol: as §1, §2, §3, §4
The effect of 8 oncology molecules, selected from first generation EGFRi and pan-kinase inhibitors which mostly target VEGFR and second and third generation therapies targeting main mutations relating to first generation treatment resistance, were assessed in vitro using a 3D micro-epidermis model. The drug incubation concentrations (3, 10, 30, 100 nM) were selected to reflect the clinically relevant (unbound) drug exposures (Table 2). The drug impact was assessed by analysis of tissue size and keratinocyte proliferation using Ki-67 staining and keratinocyte differentiation using filaggrin, desmoglein-1 and involucrin staining. […]

[3] = cited from earlier work; for Cmax: maximal plasma concentration after a single daily-recommended dose, human; for Unbound concentration: unbound plasma concentration, identified or calculated from Cmax and unbound fraction; for Unbound fraction: unbound to plasma protein
[4] = system: Human epidermal keratinocytes cells (HPEKs), 3D micro-epidermis; experiment: 3D micro-epidermis model (EpiScreen): epidermis size, toxicity, dose response, classification; type: cell-based; settings: for effect on desmoglein-1, involucrin and filaggrin expression (dose dependence): 3, 10, 30 nM; for Dose in response: variation of protein expression at 3, 10, 30 nM (EGFRi) or 3, 10, 30, 100 nM (VEGFRi); for Dose in response / Dose/response: markers in brackets; for Dose/response: supplementary table, per run (1st or 2nd Run); for impact on all measured parameters / epidermis development: micro-epidermis model;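 on all read-outs here: keratinocytes on micropatterned discs in high-calcium medium, drug exposure for three days, then fixation and confocal high-content imaging of actin, nuclei and a marker, vehicle DMSO-matched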
filaggrin (FLG) = experiment: 3D micro-epidermis model (EpiScreen): filaggrin immunostaining; type: cell-based, human; settings: for activation at 0.01 µM / activation at 0.1 µM / activation at 1 µM: Homo sapiens, 72 h; for FLG expression: Table 1 summary;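 on all read-outs here: human primary epidermal keratinocytes differentiated in high calcium into 3D micro-epidermises, compound-treated for three days, imaged by confocal high-content microscopy, filaggrin staining intensity quantified within actin-segmented structures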
desmoglein-1 (DSG1) [5] = experiment: 3D micro-epidermis model (EpiScreen): desmoglein-1 immunostaining; type: cell-based, human; settings: supplementary data, Tox = toxic; for activation at 1 µM: Homo sapiens, 72 h, read-out: DSG 1 μM
[6] = supplementary data, two runs, Tox = toxic
[7] = Table 1 summary of drug effect on epidermis
[8] = Table 1 summary, pro-differentiation / pro-proliferation
[9] = Table 3, 30 nM (EGFRi) or 100 nM (VEGFRi), 3 days, vs untreated control, superscript = significance footnote
[10] = Table 3, pro-proliferation or pro-differentiation
[11] = 10 nM, supplementary data, two runs, read-out: FLG 10 nM
[12] = 100 nM, supplementary data, two runs, Tox = toxic, read-out: FLG 100 nM
[13] = 1 μM, supplementary data, two runs, Tox = toxic

SMILES	IVL 3 nM (involucrin (IVL); supplementary data) [%]	IVL 10 nM (involucrin (IVL); supplementary data, two runs) [%]	IVL 30 nM (involucrin (IVL); supplementary data) [%]	activation at 0.1 µM (involucrin (IVL); [6]) [%]	IVL expression (involucrin (IVL))	DSG 3 nM (desmoglein-1 (DSG1) [2]) [%]	DSG 30 nM (desmoglein-1 (DSG1) [2]) [%]	activation at 0.01 µM (desmoglein-1 (DSG1) [2]) [%]	activation at 0.1 µM (desmoglein-1 (DSG1) [2]) [%]	Epidermis size [4, 9]	Classification [4, 10]	Dose in response ([4]; Table 3)	Dose/response [4]	activation at 0.1 µM (filaggrin (FLG); [12]) [%]	IVL 10 μM (involucrin (IVL); [6])	DSG 10 μM (desmoglein-1 (DSG1) [5])	FLG 10 μM (filaggrin (FLG); [6])	activation at 1 µM (involucrin (IVL); [13]) [%]	activation at 1 µM (desmoglein-1 (DSG1) [5]; 1 μM) [%]	activation at 1 µM (filaggrin (FLG); [13]) [%]	further results
CS(=O)(=O)CCNCc1ccc(-c2ccc3ncnc(Nc4ccc(OCc5cccc(F)c5)c(Cl)c4)c3c2)o1 [Lapatinib]	17	14	30	48	Increased	−6.20	29	9.6	47	Unchanged^4	Pro-	Yes	Yes (DSG, IVL,	18	–	–	–	–	–	–	Major Skin Effect [1]: Rash; DSG-1 expression (desmoglein-1 (DSG1) [2]): Increased; Cmax [3]: 516 nM; Unbound concentration [3]: 5.16* nM; Unbound fraction [3]: 1%*; Toxicity at 1 μM [4]: Yes; effect on desmoglein-1, involucrin and filaggrin expression (dose dependence) [4]: dose-dependent manner; Epidermis size [4, 7]: Decreased; Classification [4, 8]: Pro-differentiation; FLG 3 nM (filaggrin (FLG); supplementary data): 7%; FLG 30 nM (filaggrin (FLG); supplementary data): 20%; activation at 0.01 µM (filaggrin (FLG); [11]): 9%; FLG expression (filaggrin (FLG)): Increased
C=CC(=O)Nc1cc(Nc2nccc(-c3cn(C)c4ccccc34)n2)c(OC)cc1N(C)CCN(C)C [Osimertinib]	6	8	7	20	Unchanged	−3	7	-7	18	Unchanged^4	Unchanged	No	No	16	Tox	Tox	Tox	–	–	–	IVL 1 μM (involucrin (IVL); [13]): Tox; DSG 1 μM (desmoglein-1 (DSG1) [5]; 1 μM): Tox; DSG-1 expression (desmoglein-1 (DSG1) [2]): Unchanged; Cmax [3]: 627 nM; Unbound concentration [3]: 8.2764 nM; Unbound fraction [3]: 1.32%*; effect on desmoglein-1, involucrin and filaggrin expression (dose dependence) [4]: did not affect; Epidermis size [4, 7]: Unchanged; Classification [4, 8]: Unchanged; impact on all measured parameters / epidermis development [4]: did not show any impact; also recorded: no impact; FLG 3 nM (filaggrin (FLG); supplementary data): −12%; FLG 30 nM (filaggrin (FLG); supplementary data): 2%; FLG 1 μM (filaggrin (FLG); [13]): Tox; activation at 0.01 µM (filaggrin (FLG); [11]): -6%; FLG expression (filaggrin (FLG)): Unchanged
CC#CC(=O)N1CCC[C@H]1c1nc(-c2ccc(C(=O)Nc3ccccn3)cc2)c2c(N)nccn12 [Acalabrutinib]	–	–	–	11	–	–	–	–	-26	–	–	–	–	6	25%	−7.50%	33%	15	-15	15	–
COc1cc2ncnc(Nc3ccc(F)c(Cl)c3)c2cc1OCCCN1CCOCC1 [Gefitinib]	23	8	23	29	Increased	−8	15	0	41	Unchanged^4	Pro-	Yes	Yes (DSG)	–	–	–	–	–	–	–	DSG-1 expression (desmoglein-1 (DSG1) [2]): Increased; Cmax [3]: 356 nM; Unbound fraction [3]: 3.4%**; Toxicity at 1 μM [4]: Yes; effect on desmoglein-1, involucrin and filaggrin expression (dose dependence) [4]: increased in a dose-dependent manner only the expression of desmoglein-1; Epidermis size [4, 7]: Unchanged; Classification [4, 8]: Pro-differentiation; FLG 3 nM (filaggrin (FLG); supplementary data): 10%; FLG 30 nM (filaggrin (FLG); supplementary data): 5%; activation at 0.01 µM (filaggrin (FLG); read-out: FLG 10 nM, 10 nM, supplementary data, two runs): 3%; activation at 0.1 µM (filaggrin (FLG); read-out: FLG 100 nM, 100 nM, supplementary data, two runs, Tox = toxic): 28%; FLG expression (filaggrin (FLG)): Increased
Cc1ccnc2c1NC(=O)c1cccnc1N2C1CC1 [Nevirapine]	–	–	–	17	–	–	–	–	-8	–	–	–	Yes (DSG)	7	20%	−28%	2%	15	-15	8	–
CNC(=O)c1ccc(N2C(=S)N(c3ccc(C#N)c(C(F)(F)F)c3)C(=O)C2(C)C)cc1F [Enzalutamide]	–	–	–	9.3	–	–	–	–	-6	–	–	–	No	2	2%	−12%	−1%	6.2	-6	9.8	–
CCCS(=O)(=O)Nc1ccc(F)c(C(=O)c2c[nH]c3ncc(-c4ccc(Cl)cc4)cc23)c1F [Vemurafenib]	–	–	–	-11	–	–	–	–	-26	–	–	–	–	23	−40%	−58%	126%	-24	-33	65	–
COc1cc2c(Nc3ccc(Br)cc3F)ncnc2cc1OCC1CCN(C)CC1 [Vandetanib]	–	–	–	25	–	–	–	–	5	–	–	–	–	–	–	–	–	51	30	–	–
CC(=O)Nc1ccc(O)cc1 [Acetaminophen]	–	–	–	–	–	–	–	–	–	Unchanged^4	Unchanged	No	No	–	10% and 8%	–	–	–	–	–	impact on all measured parameters / epidermis development [4]: no effect
